Data: PubChem BioAssay (NCI)
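In this assay, cells in 96-well plates receive the compound at five concentrations for 48 hours. Endpoints are linearly interpolated between the surrounding concentrations. Definition used: TGI = concentration required for complete inhibition of growth.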

What was measured:
Experiment in all cases: growth of human tumour cells (NCI), 48 h
[1] = test system: T-47D breast
[2] = test system: SK-MEL-28 melanoma
[3] = test system: U251 CNS
[4] = test system: COLO 205 colon
[5] = test system: HOP-92 NSCLC
[6] = test system: 786-0 renal
[7] = test system: NCI/ADR-RES ovarian
[8] = test system: DU-145 prostate
[9] = test system: K-562 leukemia
[10] = test system: UACC-257 melanoma
[11] = test system: OVCAR-4 ovarian
[12] = test system: TK-10 renal
[13] = test system: CAKI-1 renal
[14] = test system: MCF7 breast
[15] = test system: OVCAR-3 ovarian
[16] = test system: A498 renal
[17] = test system: M14 melanoma
[18] = test system: HT29 colon
[19] = test system: SF-295 CNS
[20] = test system: EKVX NSCLC
[21] = test system: NCI-H460 lung
[22] = test system: MDA-MB-435
[23] = test system: SNB-19 CNS
[24] = test system: HOP-62 NSCLC
[25] = test system: KM12 colon
[26] = test system: SNB-75 CNS
[27] = test system: MDA-N
[28] = test system: SW-620 colon
[29] = test system: MDA-MB-231 breast
[30] = test system: UO-31 renal
[31] = test system: LOX IMVI melanoma
[32] = test system: BT-549 breast
[33] = test system: MALME-3M melanoma
[34] = test system: IGROV1 ovarian
[35] = test system: MOLT-4 leukemia
[36] = test system: A549 NSCLC
[37] = test system: SK-MEL-2 melanoma
[38] = test system: OVCAR-8 ovarian
[39] = test system: SK-MEL-5 melanoma
[40] = test system: NCI-H522 lung
[41] = test system: SK-OV-3 ovarian
[42] = test system: HL-60(TB) leukemia
[43] = test system: NCI-H226 lung
[44] = test system: HCC-2998 colon
[45] = test system: PC-3 prostate
[46] = test system: NCI-H23 lung
[47] = test system: RPMI-8226 leukemia
[48] = test system: HCT-116 colon
[49] = test system: RXF 393 renal
[50] = test system: ACHN renal
[51] = test system: HS 578T breast
[52] = test system: OVCAR-5 ovarian
[53] = test system: SN12C renal
[54] = test system: UACC-62 melanoma
[55] = test system: HCT-15 colon
[56] = test system: SF-268 CNS
[57] = test system: CCRF-CEM leukemia
[58] = test system: SF-539 CNS

CC(C)CCNc1ncnc2[nH]ncc12
TGI [1]: > 100 µM
TGI [2]: > 100 µM
TGI [3]: > 100 µM
TGI [4]: > 100 µM
TGI [5]: > 100 µM
TGI [6]: > 100 µM
TGI [7]: > 100 µM
TGI [8]: > 100 µM
TGI [9]: > 100 µM
TGI [10]: > 100 µM
TGI [11]: > 100 µM
TGI [12]: > 100 µM
TGI [13]: > 100 µM
TGI [14]: > 100 µM
TGI [15]: > 100 µM
TGI [16]: > 100 µM
TGI [17]: > 100 µM
TGI [18]: > 100 µM
TGI [19]: > 100 µM
TGI [20]: > 100 µM
TGI [21]: > 100 µM
TGI [22]: > 100 µM
TGI [23]: > 100 µM
TGI [24]: > 100 µM
TGI [25]: > 100 µM
TGI [26]: > 100 µM
TGI [27]: > 100 µM
TGI [28]: > 100 µM
TGI [29]: > 100 µM
TGI [30]: > 100 µM
TGI [31]: > 100 µM
TGI [32]: > 100 µM
TGI [33]: > 100 µM
TGI [34]: > 100 µM
TGI [35]: > 100 µM
TGI [36]: > 100 µM
TGI [37]: > 100 µM
TGI [38]: > 100 µM
TGI [39]: > 100 µM
TGI [40]: > 100 µM
TGI [41]: > 100 µM
TGI [42]: > 100 µM
TGI [43]: > 100 µM
TGI [44]: > 100 µM
TGI [45]: > 100 µM
TGI [46]: > 100 µM
TGI [47]: > 100 µM
TGI [48]: > 100 µM
TGI [49]: > 100 µM
TGI [50]: > 100 µM
TGI [51]: > 100 µM
TGI [52]: > 100 µM
TGI [53]: > 100 µM
TGI [54]: > 100 µM
TGI [55]: > 100 µM
TGI [56]: > 100 µM

N#C/C(=N/Nc1nc[nH]c1C(N)=O)C(=O)Nc1ccccc1
TGI [1]: > 100 µM
TGI [2]: > 100 µM
TGI [3]: > 100 µM
TGI [4]: > 100 µM
TGI [6]: > 100 µM
TGI [7]: > 100 µM
TGI [8]: > 100 µM
TGI [9]: > 100 µM
TGI [10]: > 100 µM
TGI [11]: > 100 µM
TGI [12]: > 100 µM
TGI [14]: > 100 µM
TGI [15]: 89.6 µM
TGI [57]: > 100 µM
TGI [17]: > 100 µM
TGI [18]: > 100 µM
TGI [19]: > 100 µM
TGI [20]: > 100 µM
TGI [21]: > 100 µM
TGI [22]: > 100 µM
TGI [23]: > 100 µM
TGI [24]: > 100 µM
TGI [25]: > 100 µM
TGI [26]: > 100 µM
TGI [27]: > 100 µM
TGI [28]: > 100 µM
TGI [29]: > 100 µM
TGI [30]: > 100 µM
TGI [32]: > 100 µM
TGI [33]: > 100 µM
TGI [34]: > 100 µM
TGI [35]: > 100 µM
TGI [36]: > 100 µM
TGI [37]: > 100 µM
TGI [38]: > 100 µM
TGI [39]: > 100 µM
TGI [40]: 45.7 µM
TGI [41]: > 100 µM
TGI [42]: > 100 µM
TGI [43]: > 100 µM
TGI [44]: > 100 µM
TGI [45]: > 100 µM
TGI [46]: > 100 µM
TGI [47]: > 100 µM
TGI [48]: > 100 µM
TGI [49]: > 100 µM
TGI [50]: > 100 µM
TGI [51]: > 100 µM
TGI [52]: > 100 µM
TGI [53]: > 100 µM
TGI [54]: > 100 µM
TGI [55]: > 100 µM
TGI [56]: > 100 µM

O=C(N/N=C(/COc1ccccc1Cl)N=Cc1cccnc1)c1ccncc1
TGI [1]: > 100 µM
TGI [2]: > 100 µM
TGI [3]: > 100 µM
TGI [4]: > 100 µM
TGI [6]: > 100 µM
TGI [7]: > 100 µM
TGI [8]: > 100 µM
TGI [9]: > 100 µM
TGI [10]: > 100 µM
TGI [11]: > 100 µM
TGI [12]: > 100 µM
TGI [13]: > 100 µM
TGI [14]: > 100 µM
TGI [15]: > 100 µM
TGI [57]: > 100 µM
TGI [16]: > 100 µM
TGI [17]: > 100 µM
TGI [18]: > 100 µM
TGI [19]: > 100 µM
TGI [20]: > 100 µM
TGI [21]: > 100 µM
TGI [58]: > 100 µM
TGI [22]: > 100 µM
TGI [23]: > 100 µM
TGI [24]: > 100 µM
TGI [25]: > 100 µM
TGI [26]: > 100 µM
TGI [27]: > 100 µM
TGI [28]: > 100 µM
TGI [29]: > 100 µM
TGI [31]: > 100 µM
TGI [32]: > 100 µM
TGI [33]: > 100 µM
TGI [34]: > 100 µM
TGI [35]: > 100 µM
TGI [36]: > 100 µM
TGI [37]: > 100 µM
TGI [38]: > 100 µM
TGI [40]: > 100 µM
TGI [41]: > 100 µM
TGI [42]: > 100 µM
TGI [43]: > 100 µM
TGI [44]: > 100 µM
TGI [45]: > 100 µM
TGI [46]: > 100 µM
TGI [47]: > 100 µM
TGI [48]: > 100 µM
TGI [49]: > 100 µM
TGI [50]: > 100 µM
TGI [51]: > 100 µM
TGI [52]: > 100 µM
TGI [53]: > 100 µM
TGI [54]: > 100 µM
TGI [55]: > 100 µM
TGI [56]: > 100 µM

CCCCNc1nc2nc[nH]c2c(=O)[nH]1
TGI [1]: > 100 µM
TGI [3]: > 100 µM
TGI [4]: > 100 µM
TGI [5]: > 100 µM
TGI [6]: > 100 µM
TGI [7]: > 100 µM
TGI [8]: > 100 µM
TGI [9]: > 100 µM
TGI [10]: > 100 µM
TGI [11]: > 100 µM
TGI [12]: > 100 µM
TGI [13]: > 100 µM
TGI [14]: > 100 µM
TGI [15]: > 100 µM
TGI [57]: > 100 µM
TGI [16]: > 100 µM
TGI [17]: > 100 µM
TGI [18]: > 100 µM
TGI [19]: > 100 µM
TGI [20]: > 100 µM
TGI [21]: > 100 µM
TGI [58]: > 100 µM
TGI [22]: > 100 µM
TGI [23]: > 100 µM
TGI [24]: > 100 µM
TGI [25]: > 100 µM
TGI [26]: > 100 µM
TGI [27]: > 100 µM
TGI [28]: > 100 µM
TGI [29]: > 100 µM
TGI [30]: > 100 µM
TGI [31]: > 100 µM
TGI [32]: > 100 µM
TGI [33]: > 100 µM
TGI [34]: > 100 µM
TGI [35]: > 100 µM
TGI [36]: > 100 µM
TGI [37]: > 100 µM
TGI [38]: > 100 µM
TGI [39]: > 100 µM
TGI [40]: > 100 µM
TGI [41]: > 100 µM
TGI [43]: > 100 µM
TGI [44]: > 100 µM
TGI [45]: > 100 µM
TGI [46]: > 100 µM
TGI [47]: > 100 µM
TGI [48]: > 100 µM
TGI [49]: > 100 µM
TGI [50]: > 100 µM
TGI [51]: > 100 µM
TGI [52]: > 100 µM
TGI [53]: > 100 µM
TGI [54]: > 100 µM
TGI [55]: > 100 µM
TGI [56]: > 100 µM

O=C1NC(N/N=C/c2c[nH]c3ccccc23)=N/C1=C\c1cccs1
TGI [1]: > 100 µM
TGI [2]: > 100 µM
TGI [3]: > 100 µM
TGI [4]: > 100 µM
TGI [5]: > 100 µM
TGI [6]: > 100 µM
TGI [7]: > 100 µM
TGI [8]: > 100 µM
TGI [9]: > 100 µM
TGI [10]: > 100 µM
TGI [11]: > 100 µM
TGI [12]: > 100 µM
TGI [13]: > 100 µM
TGI [14]: > 100 µM
TGI [15]: 77.3 µM
TGI [57]: > 100 µM
TGI [16]: 71.9 µM
TGI [17]: > 100 µM
TGI [18]: > 100 µM
TGI [19]: > 100 µM
TGI [20]: > 100 µM
TGI [21]: > 100 µM
TGI [58]: > 100 µM
TGI [22]: > 100 µM
TGI [23]: > 100 µM
TGI [24]: > 100 µM
TGI [25]: > 100 µM
TGI [26]: > 100 µM
TGI [27]: > 100 µM
TGI [28]: > 100 µM
TGI [29]: > 100 µM
TGI [30]: > 100 µM
TGI [31]: > 100 µM
TGI [32]: > 100 µM
TGI [33]: > 100 µM
TGI [34]: > 100 µM
TGI [35]: > 100 µM
TGI [36]: > 100 µM
TGI [37]: > 100 µM
TGI [38]: > 100 µM
TGI [39]: > 100 µM
TGI [40]: > 100 µM
TGI [41]: > 100 µM
TGI [42]: 60.6 µM
TGI [43]: > 100 µM
TGI [45]: > 100 µM
TGI [46]: > 100 µM
TGI [47]: > 100 µM
TGI [48]: > 100 µM
TGI [49]: > 100 µM
TGI [50]: > 100 µM
TGI [51]: > 100 µM
TGI [52]: > 100 µM
TGI [53]: > 100 µM
TGI [54]: > 100 µM
TGI [55]: > 100 µM
TGI [56]: > 100 µM
